Data on 3 compounds can be found in paper PMC3271139 (Nature, 2012).

In experiment [1] the target is T1, truncated human CYP17A1 (Homo sapiens, UniProt P05093, C22K/P23T/R20A/R21K).
T1 sequence (P05093 with tags, fused parts or gaps limits assumed): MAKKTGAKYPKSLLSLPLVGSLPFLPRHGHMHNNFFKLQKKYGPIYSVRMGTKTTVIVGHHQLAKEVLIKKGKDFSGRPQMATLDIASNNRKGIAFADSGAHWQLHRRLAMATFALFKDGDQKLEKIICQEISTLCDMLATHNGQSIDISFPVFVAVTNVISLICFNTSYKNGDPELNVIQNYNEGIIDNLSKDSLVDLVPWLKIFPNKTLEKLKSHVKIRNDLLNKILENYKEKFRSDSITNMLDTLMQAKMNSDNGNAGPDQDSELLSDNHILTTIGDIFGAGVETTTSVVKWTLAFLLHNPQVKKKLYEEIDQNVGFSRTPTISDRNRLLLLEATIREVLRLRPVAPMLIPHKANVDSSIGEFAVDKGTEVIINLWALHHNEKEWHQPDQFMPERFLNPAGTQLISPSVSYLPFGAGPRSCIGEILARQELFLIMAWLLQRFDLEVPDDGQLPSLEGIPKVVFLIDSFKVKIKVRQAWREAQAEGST
Description: Progesterone 17α-hydroxylation, HPLC separation with UV detection. It is filed as biochemical.

Experiment [2] has as its target T2, truncated, His-tagged human CYP17A1 (Homo sapiens, UniProt P05093, C22K/P23T/R20A/R21K).
T2 sequence (P05093 with tags, fused parts or gaps limits assumed): T1 sequence (P05093 with tags, fused parts or gaps limits assumed)
Kind of experiment: UV/vis spectral shift ligand binding assay.

For `C[C@]12CC[C@H](O)CC1=CC[C@@H]1[C@@H]2CC[C@]2(C)C(n3cnc4ccccc43)=CC[C@@H]12` [TOK-001, 3β-hydroxy-17-(1H-benzimidazole-1-yl)androsta-5,16-diene], inhibition in experiment [1] was half-maximal at 503 ± 1 nM (IC50). Further, in experiment [2], the Kd – broadly, the free concentration of one partner at which half of the binding sites on the other are occupied at equilibrium, for simple one-to-one binding – was < 100 nM.

For the compound `C[C@]12CC[C@H](O)CC1=CC[C@@H]1[C@@H]2CC[C@]2(C)C(c3cccnc3)=CC[C@@H]12` [abiraterone, 17-(3-pyridyl)androsta-5,16-dien-3β-ol], in experiment [1], the IC50 – broadly, the concentration that inhibits the measured activity by half – was found to be 201 ± 1 nM. Further, in experiment [2], the Kd was < 100 nM.

`CC(=O)[C@H]1CC[C@H]2[C@@H]3CCC4=CC(=O)CC[C@]4(C)[C@H]3CC[C@]12C` [progesterone]: the Kd in experiment [2] was 229 ± 14 nM.
